Columns and labels:
P. putida LS46 [1] = experiment: Growth of P. putida LS46 in the presence of salicylic acid; assay type: cell-based, Pseudomonas putida; conditions: salicylic acid at 10 mM
Procedure: (§1) Salicylic acid has been used as an inhibitor of β-oxidation in plant, animal, and bacterial cells. […] Salicylic acid at 10 mM inhibited P. putida LS46 growth. Therefore, 1-5 mM concentration of salicylic acid was studied for its effect on mcl-PHA production by P. putida LS46. To separate volumes of Ramsey's liquid medium supplemented with 2% of glucose were added: (i) no salicylic acid (control), (ii) 1.0 nM salicylic acid, (iii) 2.5 mM salicylic acid, or (iv) 5.0 salicylic acid. After sterilization, the liquid media were dispensed into flasks which were then each inoculated with 1% inoculum of P. putida LS46, and then cultured for 48 h. Cultures were then harvested and their cdw, the percentage accumulation of mcl-PHAs in the cells, and the mol % monomer composition of C8 […] the mcl-PHAs were determined. […] 3-hydroxyoctanoate decreased, while 3-hydroxydecanoate increased, in the presence of 2.5 mM and 5.0 mM salicylic acid, compared with the control (Table 6).

P. putida LS46 [2] = experiment: Effects of salicylic acid on production of mcl-PHAs by P. putida LS46; assay type: cell-based, Pseudomonas putida; conditions: Ramsey's medium + 2% glucose, 48 h
Procedure: Six of the microbial isolates (i.e., LS1, LS5, LS33, LS34, LS39, LS46) that produced epifluorescence under UV illumination were separately cultured for 72 h in: (i) 200 mL LB broth, and (ii) 200 mL LB broth supplemented with 3 g/L glucose. The microbial cells were centrifuged at 4500 g for 20 min in a Sorvall RC6-Plus centrifuge. The microbial pellets were washed twice in 0.85% NaCl and then dried at 80° C. for 48 h. The intracellular PHA contents and PHA composition were determined by GC-MS following the method taught by Braunegg et al. (1978, Eur. J. Appl. Microbiol. Biotechnol. 6:29-37). Dried cells (20 mg) were mixed with 1 mL chloroform and 1 mL methanol containing 15% sulphuric acid. Benzoic acid (1 mg/mL) was used as an internal standard. The suspensions were refluxed at 100° C. for 4 h, after which, 0.5 ml of water were added to each suspension. The mixtures were centrifuged at 4000×g. The lower chloroform layers were separated and analyzed using a GC-MS fitted FID detector and aHP-5 capillary column. The initial oven temperature was set at 75° C. for 6 min and then was increased to 265° C. with a ramping rate of 20° C./min.
as §1, with “To separate volumes of Ramsey's liquid medium supplemented with 2% of glucose were added: (i) no salicylic acid (control), (ii) 1.0 nM salicylic acid, (iii) 2.5 mM salicylic acid, or (iv) 5.0 salicylic acid.” left out

P. putida LS46 [3] = experiment: as above; assay type: cell-based, Pseudomonas putida; conditions: 1.0 mM salicylic acid; Ramsey's medium + 2% glucose; 48 h
P. aeruginosa = conditions: salicylic acid between 5 mM and 60 mM in growth medium; cited from earlier work

O=C(O)c1ccccc1O [Salicylic acid, salicylic acid]
growth of P. putida LS46 (P. putida LS46 [1]): inhibited | 3-hydroxyalkanoate monomer content C10 (P. putida LS46 [2]; 1.0 mM salicylic acid): 47.90 mol % | 3-hydroxyalkanoate monomer content C12 (P. putida LS46 [2]; 1.0 mM salicylic acid): 1.91 mol % | CDW (P. putida LS46 [2]; 1.0 mM salicylic acid): 3.08 g/L | 3-hydroxyalkanoate monomer content C6 (P. putida LS46 [2]; 2.5 mM salicylic acid): 3.39 mol % | 3-hydroxyalkanoate monomer content C8 (P. putida LS46 [2]; 2.5 mM salicylic acid): 44.06 mol % | 3-hydroxyalkanoate monomer content C10 (P. putida LS46 [2]; 2.5 mM salicylic acid): 52.03 mol % | 3-hydroxyalkanoate monomer content C12 (P. putida LS46 [2]; 2.5 mM salicylic acid): 0.93 mol % | CDW (P. putida LS46 [2]; 2.5 mM salicylic acid): 2.89 g/L | PHA content (P. putida LS46 [2]; 2.5 mM salicylic acid): 28.90 % CDW | 3-hydroxyalkanoate monomer content C6 (P. putida LS46 [2]; 5.0 mM salicylic acid): 2.46 mol % | 3-hydroxyalkanoate monomer content C8 (P. putida LS46 [2]; 5.0 mM salicylic acid): 42.49 mol % | 3-hydroxyalkanoate monomer content C10 (P. putida LS46 [2]; 5.0 mM salicylic acid): 53.36 mol % | 3-hydroxyalkanoate monomer content C12 (P. putida LS46 [2]; 5.0 mM salicylic acid): 0.66 mol % | CDW (P. putida LS46 [2]; 5.0 mM salicylic acid): 2.64 g/L | PHA content (P. putida LS46 [2]; 5.0 mM salicylic acid): 21.89 % CDW | 3-hydroxyalkanoate monomer content C6 (P. putida LS46 [3]): 3.97 mol % | 3-hydroxyalkanoate monomer content C8 (P. putida LS46 [3]): 46.30 mol % | PHA content (P. putida LS46 [3]): 26.07 % CDW | monomer composition of mcl-PHAs produced by P. aeruginosa (P. aeruginosa): altered the monomer composition
